Data from a compilation of properties of binary mixtures (doi:10.1039/c2cc30374d).

Experiment: xn = mol fraction of the nth substance listed
Conditions: 101 kPa

CCOS(=O)(=O)[O-].CC[n+]1ccn(C)c1 + [N-]=C=S.[NH4+]
x2 = 0
Conditions	electrical conductivity [S/m]	viscosity [mPa·s]
298.15 K	0.38	95.9
303.15 K	0.468	75.63
308.15 K	0.566	60.66
313.15 K	0.675	49.45
318.15 K	0.856	40.88
323.15 K	1	34.24
328.15 K	–	28.99
333.15 K	–	24.81

CC(=O)[O-].CC[n+]1ccn(C)c1 + [N-]=C=S.[NH4+]
x2 = 0
Conditions	electrical conductivity [S/m]	viscosity [mPa·s]
298.15 K	0.295	128.4
303.15 K	0.383	95.1
308.15 K	0.483	72.4
318.15 K	0.819	44.8
323.15 K	0.984	36.27
328.15 K	–	29.81
333.15 K	–	24.86

[N-]=C=S.[NH4+] + CCOS(=O)(=O)[O-].CC[n+]1ccn(C)c1
Conditions	electrical conductivity [S/m]	viscosity [mPa·s]
298.15 K, x1 = 0.1553	0.319	150
298.15 K, x1 = 0.4042	0.279	231.1
298.15 K, x1 = 0.5205	0.281	224
298.15 K, x1 = 0.565	0.295	215.9
298.15 K, x1 = 0.5997	0.301	208.9
303.15 K, x1 = 0.0235	0.461	81.3
303.15 K, x1 = 0.1553	0.398	118
303.15 K, x1 = 0.3025	0.358	163.3
303.15 K, x1 = 0.4042	0.353	178.7
303.15 K, x1 = 0.5205	0.358	173.4
303.15 K, x1 = 0.5997	0.385	168.2
308.15 K, x1 = 0.0235	0.56	65.16
308.15 K, x1 = 0.1553	0.486	94.3
308.15 K, x1 = 0.5205	0.446	135.3
308.15 K, x1 = 0.565	0.468	133.9
308.15 K, x1 = 0.5997	0.481	133.7
313.15 K, x1 = 0.0235	0.67	53.09
313.15 K, x1 = 0.1553	0.584	76.57
313.15 K, x1 = 0.3025	0.531	104.6
313.15 K, x1 = 0.4042	0.526	112.9
313.15 K, x1 = 0.5205	0.546	107.5
313.15 K, x1 = 0.565	0.573	106
318.15 K, x1 = 0.0235	0.846	43.86
318.15 K, x1 = 0.1553	0.739	63.03
318.15 K, x1 = 0.3025	0.633	85.6
318.15 K, x1 = 0.4042	0.633	91.8
318.15 K, x1 = 0.5997	0.751	84.6
323.15 K, x1 = 0.0235	0.99	36.68
323.15 K, x1 = 0.1553	0.867	52.56
323.15 K, x1 = 0.3025	0.795	70.9
323.15 K, x1 = 0.4042	0.795	75.6
323.15 K, x1 = 0.5205	0.831	71.22
323.15 K, x1 = 0.5997	0.896	68.92
328.15 K, x1 = 0.0235	–	31.04
328.15 K, x1 = 0.1553	–	44.26
328.15 K, x1 = 0.3025	–	59.41
328.15 K, x1 = 0.4042	–	63.04
328.15 K, x1 = 0.5205	–	59.16
328.15 K, x1 = 0.565	–	57.79
328.15 K, x1 = 0.5997	–	56.96
333.15 K, x1 = 0.1553	–	37.68
333.15 K, x1 = 0.5205	–	49.72
333.15 K, x1 = 0.565	–	48.47
